Experimental data reported in ChEMBL document CHEMBL1201862, “PubChem BioAssay data set” (2004).
Activity calls are given as the source filed them.

Experiments:
[1] = molecular target: Glyceraldehyde-3-phosphate dehydrogenase (Homo sapiens, UniProt P04406)
[2] = molecular target: T1, Alkaline phosphatase, tissue-nonspecific isozyme (Homo sapiens, UniProt P05186); experiment: potency against alkaline phosphatase TNAP – biochemical, luminescent, dose response, SAR follow-up (AID 1056)
T1 sequence (P05186 whole entry): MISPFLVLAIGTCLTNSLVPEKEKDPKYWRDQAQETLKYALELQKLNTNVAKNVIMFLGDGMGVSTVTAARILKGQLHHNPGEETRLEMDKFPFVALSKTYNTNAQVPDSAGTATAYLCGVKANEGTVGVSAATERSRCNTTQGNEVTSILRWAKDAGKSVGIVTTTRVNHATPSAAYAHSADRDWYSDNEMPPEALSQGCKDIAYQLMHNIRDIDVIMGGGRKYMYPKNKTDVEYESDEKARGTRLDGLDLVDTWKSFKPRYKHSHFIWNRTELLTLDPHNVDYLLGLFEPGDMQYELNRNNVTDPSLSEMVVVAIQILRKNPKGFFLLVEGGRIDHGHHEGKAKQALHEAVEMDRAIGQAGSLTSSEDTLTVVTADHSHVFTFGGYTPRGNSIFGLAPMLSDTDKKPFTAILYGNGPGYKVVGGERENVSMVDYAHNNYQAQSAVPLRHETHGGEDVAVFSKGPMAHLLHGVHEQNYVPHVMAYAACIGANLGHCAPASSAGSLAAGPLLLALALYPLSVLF

[3] = molecular target: T2, Short transient receptor potential channel 4 (Mus musculus, UniProt Q9QUQ5); experiment: calcium entry via TRPC4 opening agents – cell-based, HEK293 TRPC4/mu-opioid, Fluo-4 calcium, dose response (AID 434937); type: functional
T2 sequence (Q9QUQ5 whole entry): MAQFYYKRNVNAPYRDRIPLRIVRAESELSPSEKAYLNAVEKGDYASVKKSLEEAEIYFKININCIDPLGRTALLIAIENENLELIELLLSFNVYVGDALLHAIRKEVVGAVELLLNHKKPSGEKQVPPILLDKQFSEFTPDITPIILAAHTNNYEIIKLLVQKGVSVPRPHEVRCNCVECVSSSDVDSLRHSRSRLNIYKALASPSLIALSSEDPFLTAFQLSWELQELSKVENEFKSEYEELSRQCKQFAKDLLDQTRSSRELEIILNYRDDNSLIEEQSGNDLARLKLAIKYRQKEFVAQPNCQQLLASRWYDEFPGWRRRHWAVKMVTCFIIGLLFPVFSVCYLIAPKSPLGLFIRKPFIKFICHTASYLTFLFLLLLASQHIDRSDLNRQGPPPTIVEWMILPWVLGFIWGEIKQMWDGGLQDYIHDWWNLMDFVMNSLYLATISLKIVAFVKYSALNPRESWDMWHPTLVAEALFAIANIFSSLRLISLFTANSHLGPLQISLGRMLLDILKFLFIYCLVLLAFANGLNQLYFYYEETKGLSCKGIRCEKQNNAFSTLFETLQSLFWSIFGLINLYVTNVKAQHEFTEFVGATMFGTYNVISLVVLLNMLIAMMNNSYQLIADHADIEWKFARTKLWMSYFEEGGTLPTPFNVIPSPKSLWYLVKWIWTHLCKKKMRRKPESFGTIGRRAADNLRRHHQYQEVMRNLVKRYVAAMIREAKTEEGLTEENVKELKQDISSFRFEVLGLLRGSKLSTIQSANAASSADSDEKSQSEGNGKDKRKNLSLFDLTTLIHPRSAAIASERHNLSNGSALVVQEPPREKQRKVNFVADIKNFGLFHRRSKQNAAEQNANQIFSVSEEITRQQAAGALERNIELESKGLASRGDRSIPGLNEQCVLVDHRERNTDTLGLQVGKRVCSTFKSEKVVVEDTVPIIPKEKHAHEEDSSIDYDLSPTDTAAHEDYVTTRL

[4] = molecular target: G-protein coupled receptor 55 (Homo sapiens, UniProt Q9Y2T6); experiment: selective activators of receptor GPR55 – imaging, U2OS cells, beta-arrestin-GFP redistribution, primary screen (AID 1961); type: functional
[5] = molecular target: T3, Microphthalmia-associated transcription factor (Homo sapiens, UniProt O75030); experiment: reducers of TRPM1 reporter luminescence, concentration series – cell-based, SK-MEL-5, cherry-picked, set 3, MITF inhibitor project, dose response (AID 493073); type: functional;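 note: SK-MEL-5 melanoma cells with luciferase driven by the MITF target TRPM1 promoter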
T3 sequence (O75030 whole entry): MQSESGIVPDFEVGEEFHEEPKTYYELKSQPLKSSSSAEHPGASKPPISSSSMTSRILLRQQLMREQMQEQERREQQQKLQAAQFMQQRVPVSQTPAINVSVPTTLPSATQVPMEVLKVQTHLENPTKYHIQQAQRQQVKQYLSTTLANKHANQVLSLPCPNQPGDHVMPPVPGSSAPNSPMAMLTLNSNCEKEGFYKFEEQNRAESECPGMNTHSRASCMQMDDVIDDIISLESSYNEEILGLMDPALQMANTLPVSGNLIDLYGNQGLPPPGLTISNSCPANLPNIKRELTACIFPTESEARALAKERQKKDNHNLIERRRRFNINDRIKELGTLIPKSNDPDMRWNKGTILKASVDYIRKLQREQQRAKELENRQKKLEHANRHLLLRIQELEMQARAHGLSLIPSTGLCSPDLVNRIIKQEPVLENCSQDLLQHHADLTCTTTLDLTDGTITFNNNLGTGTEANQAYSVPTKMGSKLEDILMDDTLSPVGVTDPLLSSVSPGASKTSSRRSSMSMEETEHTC

[6] = molecular target: T4, Replicative DNA helicase DnaB (Mycobacterium tuberculosis, UniProt P9WMR3); experiment: DnaB intein splicing inhibitors, dose response, biochemical, cell-free fluorescence (AID 449749); type: functional
T4 sequence (P9WMR3 whole entry): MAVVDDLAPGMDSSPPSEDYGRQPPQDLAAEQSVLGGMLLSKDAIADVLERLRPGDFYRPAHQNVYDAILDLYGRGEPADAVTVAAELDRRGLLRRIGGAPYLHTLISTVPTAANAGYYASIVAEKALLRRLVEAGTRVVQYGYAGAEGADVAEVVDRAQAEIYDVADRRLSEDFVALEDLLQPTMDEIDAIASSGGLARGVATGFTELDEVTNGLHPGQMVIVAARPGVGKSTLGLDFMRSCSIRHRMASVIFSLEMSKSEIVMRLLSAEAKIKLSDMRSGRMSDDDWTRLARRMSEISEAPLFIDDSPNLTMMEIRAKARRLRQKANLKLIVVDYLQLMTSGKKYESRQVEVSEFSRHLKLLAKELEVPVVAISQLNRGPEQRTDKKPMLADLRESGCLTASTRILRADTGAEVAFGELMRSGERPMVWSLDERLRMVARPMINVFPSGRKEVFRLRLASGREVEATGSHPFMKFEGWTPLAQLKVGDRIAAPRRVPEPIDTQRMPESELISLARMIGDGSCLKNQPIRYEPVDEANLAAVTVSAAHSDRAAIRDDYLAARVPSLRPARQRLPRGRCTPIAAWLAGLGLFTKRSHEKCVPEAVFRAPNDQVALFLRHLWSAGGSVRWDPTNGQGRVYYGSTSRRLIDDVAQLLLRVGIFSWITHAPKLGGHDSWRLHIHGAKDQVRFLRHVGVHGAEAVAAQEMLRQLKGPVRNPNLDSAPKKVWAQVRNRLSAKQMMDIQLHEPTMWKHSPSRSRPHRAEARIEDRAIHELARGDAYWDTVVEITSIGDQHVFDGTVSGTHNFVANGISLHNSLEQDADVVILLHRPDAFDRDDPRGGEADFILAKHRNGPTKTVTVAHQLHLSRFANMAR

Protein RecA = molecular target: T5, Protein RecA (Mycobacterium tuberculosis, UniProt P9WHJ3); experiment: Fluorescence Cell-Free Homogeneous Dose Retest to Identify Inhibitors of RecA-Intein Splicing Activity. [Related pubchem assays (depositor defined):AID2097, AID2223, AID489010, AID492950]; type: functional
T5 sequence (P9WHJ3 whole entry): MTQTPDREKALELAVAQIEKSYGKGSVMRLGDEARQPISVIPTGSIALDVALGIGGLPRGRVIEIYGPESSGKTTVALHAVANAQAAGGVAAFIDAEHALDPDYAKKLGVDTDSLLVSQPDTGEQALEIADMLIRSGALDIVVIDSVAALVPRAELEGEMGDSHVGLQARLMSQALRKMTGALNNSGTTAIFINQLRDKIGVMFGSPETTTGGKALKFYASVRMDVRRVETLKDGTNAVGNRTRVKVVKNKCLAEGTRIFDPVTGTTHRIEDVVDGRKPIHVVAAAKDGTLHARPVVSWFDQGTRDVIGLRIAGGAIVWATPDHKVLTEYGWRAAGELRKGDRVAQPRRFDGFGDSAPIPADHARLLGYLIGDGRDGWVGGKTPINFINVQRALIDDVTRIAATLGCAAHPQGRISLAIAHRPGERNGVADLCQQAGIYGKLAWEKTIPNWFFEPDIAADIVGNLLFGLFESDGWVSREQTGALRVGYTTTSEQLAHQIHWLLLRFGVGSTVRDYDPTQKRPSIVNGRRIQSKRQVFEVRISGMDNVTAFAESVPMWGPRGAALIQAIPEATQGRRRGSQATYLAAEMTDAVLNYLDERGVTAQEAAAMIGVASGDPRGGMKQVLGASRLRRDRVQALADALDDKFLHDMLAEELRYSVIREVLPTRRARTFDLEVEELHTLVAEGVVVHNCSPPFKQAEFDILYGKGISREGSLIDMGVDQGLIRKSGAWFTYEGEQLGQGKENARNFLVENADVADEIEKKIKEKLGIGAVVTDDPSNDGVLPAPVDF

[7] = molecular target: T6, Tyrosine-protein phosphatase non-receptor type 7 (Homo sapiens, UniProt P35236); type: functional
T6 sequence (P35236 whole entry): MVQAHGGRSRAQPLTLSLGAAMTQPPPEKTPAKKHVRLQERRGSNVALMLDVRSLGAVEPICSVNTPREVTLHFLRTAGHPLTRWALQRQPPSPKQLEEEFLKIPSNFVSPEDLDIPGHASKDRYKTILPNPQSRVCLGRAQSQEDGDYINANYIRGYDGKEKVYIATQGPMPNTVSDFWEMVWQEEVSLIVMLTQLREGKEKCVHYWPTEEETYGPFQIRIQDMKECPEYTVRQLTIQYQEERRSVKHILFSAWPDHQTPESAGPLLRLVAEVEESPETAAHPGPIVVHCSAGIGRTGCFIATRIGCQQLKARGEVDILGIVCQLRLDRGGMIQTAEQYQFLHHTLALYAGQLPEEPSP

[8] = molecular target: T7, Tyrosine-protein phosphatase non-receptor type 22 (Homo sapiens, UniProt Q9Y2R2); type: functional
T7 sequence (Q9Y2R2 whole entry): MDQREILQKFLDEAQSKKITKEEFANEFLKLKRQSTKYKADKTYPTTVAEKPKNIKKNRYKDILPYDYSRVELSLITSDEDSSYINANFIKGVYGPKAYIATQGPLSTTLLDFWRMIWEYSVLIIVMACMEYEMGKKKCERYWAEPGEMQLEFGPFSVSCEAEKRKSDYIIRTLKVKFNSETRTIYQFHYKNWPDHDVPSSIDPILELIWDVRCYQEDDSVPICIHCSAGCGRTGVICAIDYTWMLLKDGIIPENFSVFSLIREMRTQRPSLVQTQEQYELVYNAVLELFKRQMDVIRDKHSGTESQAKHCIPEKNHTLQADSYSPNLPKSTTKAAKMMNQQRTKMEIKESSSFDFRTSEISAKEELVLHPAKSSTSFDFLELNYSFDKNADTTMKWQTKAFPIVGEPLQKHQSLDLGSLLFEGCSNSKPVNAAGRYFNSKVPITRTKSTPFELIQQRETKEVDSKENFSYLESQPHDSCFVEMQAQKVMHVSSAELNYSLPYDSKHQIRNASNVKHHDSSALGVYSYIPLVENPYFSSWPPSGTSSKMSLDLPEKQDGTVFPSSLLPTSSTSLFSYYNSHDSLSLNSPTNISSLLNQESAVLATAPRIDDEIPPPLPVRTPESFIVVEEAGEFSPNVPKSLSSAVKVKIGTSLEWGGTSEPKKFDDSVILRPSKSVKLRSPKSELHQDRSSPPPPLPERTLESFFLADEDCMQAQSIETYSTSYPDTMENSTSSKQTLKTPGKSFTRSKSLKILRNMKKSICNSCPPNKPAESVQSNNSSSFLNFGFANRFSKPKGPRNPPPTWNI

[9] = molecular target: T7, Tyrosine-protein phosphatase non-receptor type 22; type: functional; remark: listed apart in the source
Genome polyprotein = Genome polyprotein (dengue virus type 2, UniProt P29990); experiment: flavivirus cap methylation enzyme inhibition – biochemical, confirmation dose response, primary screen (AID 588689); type: functional
SUMO-activating enzyme = SUMO-activating enzyme (Homo sapiens, UniProt Q9UBT2); experiment: blockers of UBC9-mediated SUMO conjugation – biochemical, AlphaScreen, SUMOylation inhibitor project, confirmation (AID 2018); type: functional
H9c2 = experiment: cells; type: functional, cell-based; settings: Rattus norvegicus, H9c2, Myocardium;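 note: confirmatory concentration-response retest of ultra-high-throughput screening hits for modulation of myocardial damage; cell death induced by hydrogen peroxide oxidative stress; compound pretreatment for 60 min then peroxide exposure for 2 h; potency is for protecting the cells against peroxide damage rather than for killing them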
[10] = molecular target: T2, Short transient receptor potential channel 4; experiment: block of DAMGO-driven TRPC4 calcium entry – cell-based, HEK293 TRPC4/mu-opioid, Fluo-4 calcium, dose response (AID 434942); type: functional;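 note: potency of inhibitors blocking the TRPC4 calcium response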

Chain of Glyceraldehyde-3-phosphate dehydrogenase (P04406 whole entry): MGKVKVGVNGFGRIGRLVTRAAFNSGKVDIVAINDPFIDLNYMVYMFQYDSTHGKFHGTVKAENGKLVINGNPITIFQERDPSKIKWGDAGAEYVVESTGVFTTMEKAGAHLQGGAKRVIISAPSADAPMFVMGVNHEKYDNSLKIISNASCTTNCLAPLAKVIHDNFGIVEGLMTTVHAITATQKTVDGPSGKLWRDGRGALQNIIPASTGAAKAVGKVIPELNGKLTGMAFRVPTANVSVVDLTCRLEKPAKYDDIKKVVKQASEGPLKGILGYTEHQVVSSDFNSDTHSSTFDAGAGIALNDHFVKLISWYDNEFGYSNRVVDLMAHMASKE
Chain of Genome polyprotein (P29990 2492-3391 limits assumed): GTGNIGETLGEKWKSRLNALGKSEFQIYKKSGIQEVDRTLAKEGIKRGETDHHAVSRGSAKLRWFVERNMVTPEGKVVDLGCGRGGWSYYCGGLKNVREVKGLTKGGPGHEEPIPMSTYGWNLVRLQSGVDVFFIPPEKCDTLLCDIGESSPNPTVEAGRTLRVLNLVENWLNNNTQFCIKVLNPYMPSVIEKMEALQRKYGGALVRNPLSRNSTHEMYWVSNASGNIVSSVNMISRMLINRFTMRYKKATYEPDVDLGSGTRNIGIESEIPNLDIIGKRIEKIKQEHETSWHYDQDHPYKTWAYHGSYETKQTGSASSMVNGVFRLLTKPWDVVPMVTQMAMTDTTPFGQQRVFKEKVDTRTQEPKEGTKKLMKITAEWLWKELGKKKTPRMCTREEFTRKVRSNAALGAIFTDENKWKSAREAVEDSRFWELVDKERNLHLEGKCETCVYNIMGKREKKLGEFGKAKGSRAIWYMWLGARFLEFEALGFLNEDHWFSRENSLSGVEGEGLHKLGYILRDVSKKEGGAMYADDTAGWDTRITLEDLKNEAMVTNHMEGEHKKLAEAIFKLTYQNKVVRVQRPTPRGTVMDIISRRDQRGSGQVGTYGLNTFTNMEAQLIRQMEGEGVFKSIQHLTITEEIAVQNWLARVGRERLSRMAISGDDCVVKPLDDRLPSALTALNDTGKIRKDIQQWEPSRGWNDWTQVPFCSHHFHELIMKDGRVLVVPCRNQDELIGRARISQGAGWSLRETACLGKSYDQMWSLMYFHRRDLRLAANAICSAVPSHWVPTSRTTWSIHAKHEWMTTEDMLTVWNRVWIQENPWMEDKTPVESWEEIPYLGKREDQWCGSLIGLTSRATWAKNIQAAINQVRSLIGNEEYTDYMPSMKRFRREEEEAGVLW
Chain of G-protein coupled receptor 55 (Q9Y2T6 whole entry): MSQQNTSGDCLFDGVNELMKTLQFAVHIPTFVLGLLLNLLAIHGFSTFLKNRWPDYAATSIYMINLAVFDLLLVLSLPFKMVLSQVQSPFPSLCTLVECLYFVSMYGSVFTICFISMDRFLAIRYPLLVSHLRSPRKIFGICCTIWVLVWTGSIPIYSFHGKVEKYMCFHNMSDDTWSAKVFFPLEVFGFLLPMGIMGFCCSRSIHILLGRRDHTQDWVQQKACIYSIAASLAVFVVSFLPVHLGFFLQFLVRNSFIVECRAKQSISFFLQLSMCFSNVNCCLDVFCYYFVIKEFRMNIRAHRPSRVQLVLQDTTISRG
Chain of SUMO-activating enzyme (Q9UBE0 whole entry): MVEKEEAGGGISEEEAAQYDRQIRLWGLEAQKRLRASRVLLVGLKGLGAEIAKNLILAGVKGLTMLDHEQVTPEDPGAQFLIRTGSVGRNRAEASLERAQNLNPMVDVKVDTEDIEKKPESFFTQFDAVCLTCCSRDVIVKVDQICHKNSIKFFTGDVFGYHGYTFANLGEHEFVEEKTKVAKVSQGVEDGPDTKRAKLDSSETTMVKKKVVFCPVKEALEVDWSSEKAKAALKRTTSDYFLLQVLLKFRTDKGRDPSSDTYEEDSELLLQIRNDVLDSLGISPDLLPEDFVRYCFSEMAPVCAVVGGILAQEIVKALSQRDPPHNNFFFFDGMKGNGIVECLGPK
Chain of SUMO-activating enzyme (Q9UBT2 whole entry): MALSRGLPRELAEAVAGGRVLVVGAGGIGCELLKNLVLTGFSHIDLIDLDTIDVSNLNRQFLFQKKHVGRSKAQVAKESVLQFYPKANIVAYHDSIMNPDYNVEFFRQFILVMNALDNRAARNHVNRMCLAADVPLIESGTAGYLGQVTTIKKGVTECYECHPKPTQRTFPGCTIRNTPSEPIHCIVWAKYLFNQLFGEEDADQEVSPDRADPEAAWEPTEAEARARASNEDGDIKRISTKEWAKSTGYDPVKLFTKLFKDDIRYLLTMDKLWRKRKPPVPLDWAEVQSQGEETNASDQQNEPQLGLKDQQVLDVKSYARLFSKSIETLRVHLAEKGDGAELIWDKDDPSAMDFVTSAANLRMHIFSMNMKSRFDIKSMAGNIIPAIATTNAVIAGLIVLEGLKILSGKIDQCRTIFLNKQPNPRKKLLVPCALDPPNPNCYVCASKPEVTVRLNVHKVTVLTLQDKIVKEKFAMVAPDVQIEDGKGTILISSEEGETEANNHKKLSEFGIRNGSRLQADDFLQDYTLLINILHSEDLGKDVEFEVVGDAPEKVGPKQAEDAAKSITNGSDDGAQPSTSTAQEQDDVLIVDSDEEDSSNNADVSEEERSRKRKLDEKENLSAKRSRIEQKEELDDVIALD

COc1cccc(Cc2nnc(N3C(=O)[C@H]4CCCC[C@H]4C3=O)[nH]2)c1
IC50 [1]: > 100 µM (not active)
IC50 [2]: 1.63 µM (active)

CN(C)C1(CNC(=O)c2ccc(Cl)c(S(=O)(=O)NCc3ccco3)c2)CCCCC1
EC50 [3]: 0.119 µM (active)

CCSC1(SCC)N=C(N)C2(C#N)C(c3ccc(F)cc3)C12C#N (stereo not given)
EC50 [4]: 1.86 µM (active)
AC50 [5]: 14 µM (active)
AC50 [6]: 6.54 µM (active)
EC50 (Protein RecA): 12.5 µM (active)

CCCOC(=O)c1c(-c2ccc(C)cc2C)csc1NC(=O)C1C2CCC(O2)C1C(=O)O (stereo not given)
IC50 [7]: > 79.4 µM (inactive)
IC50 [8]: > 79.4 µM (inactive)
IC50 [9]: > 79.4 µM (inactive)
IC50 (Genome polyprotein): 55 µM (active)

O=C1c2ccccc2C(=O)N1c1nnc(-c2ccc(Cl)cc2)[nH]1
IC50 [1]: > 100 µM (not active)
IC50 [2]: 2.49 µM (active)

Cn1nc(-c2ccc(F)cc2)cc1C(=O)O
IC50 [1]: > 100 µM (not active)
IC50 [2]: > 100 µM (inactive)

CC1CCCN(CCCNC(=O)c2ccc3c(c2)N(Cc2ccccc2F)C(=O)c2ccccc2S3(=O)=O)C1 (stereo not given)
EC50 [3]: 0.944 µM (active)

Nc1c(C(=O)N/N=C/c2cccnc2)oc2nc(-c3ccco3)cc(-c3ccco3)c12
IC50 (SUMO-activating enzyme): 8.88 µM (active)
IC50 (H9c2): > 79 µM (inactive)

C/C=C(\C)CN1CCC(n2nccc2NC(=O)CCc2ccccc2)CC1
EC50 [10]: 0.299 µM (active)
EC50 [3]: 0.267 µM (active)
